We go through 16 molecules from PubChem BioAssay (NCI).

“And” between values parts separate entries of the source, which are not always exact repeats. Identical values can stand only once.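 Method: 48-hour compound exposure of cells in 96-well plates, five concentrations, linear interpolation of endpoints. GI50 is the concentration that inhibits growth by half. TGI denotes the concentration required for complete inhibition of growth.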

For the first assay, the system named is K-562 leukemia. Put plainly: inhibition of tumour cell growth, NCI panel, 48 h.
For the molecule `c1cnn2ncc(-c3ccnc(Nc4ccc5c(c4)OCCO5)n3)c2c1`, the GI50 is 285 nM and the TGI was above 25 µM.
For `Cc1ccc(-n2nc(C(C)(C)C)cc2NC(=O)NCc2cc(F)ccc2Oc2ccc3c(cnn3CCO)c2)cc1`, the GI50 is 8.02 nM and 18.5 nM; the TGI was above 10 µM.
In the case of `COc1ccc2c(NCCCCCCNc3c4ccccc4nc4cc(OC)ccc34)c3ccccc3nc2c1`, the TGI stood at 0.304 µM.
As for `COc1cccc2c(=O)c3c(sc12)c(NCCCNCCO)nc1ccccc13`, the GI50 was 1420 nM and the TGI worked out at 3.68 µM.
The molecule `O=C(O)c1ccccc1C(=O)c1ccc2c(c1)Cc1ccccc1-2` gave a TGI above 100 µM.
The same measure, in the same setting: as for `C=CC1=C(C)C2=NC1=CC1=NC(=CC3=C(C)C4=C(O)[C@H](C(=O)OC)C(=C5NC(=C2)[C@@H](C)[C@@H]5CCC(=O)O)C4=N3)C(CC)=C1C`, the figure is 6.24 µM.
With `COc1ccc(Nc2nccc(N3CCN(c4c5ccc(Cl)cc5nc5ccc(OC)cc45)CC3)n2)cc1`, the GI50 is 3060 nM and the TGI is above 100 µM.
For `CC(=Nc1ccc(S(N)(=O)=O)cc1)c1c(O)[nH]c2ccccc12`, in that order: above 25000 nM and above 25 µM.
For `CCn1c(-c2nonc2N)nc2ccncc21`, in that order: above 25000 nM and above 25 µM.
In the case of `CC(C)[O-].CC(C)[O-].CN(CCN(C)Cc1cc(F)cc(F)c1[O-])Cc1cc(F)cc(F)c1[O-].[Ti+4]`, the GI50 is 835 nM and the TGI was found to be 5.49 µM.
The like results for `COc1ccc(-c2cnoc2-c2cc(OC)c3c(c2)OCCO3)cc1` were, in that order, below 11.5 nM and above 100 µM.
`CC(C)Oc1ccc(C(=O)Cn2ccnc2)cc1-n1c(CN2CCN(C(=O)COc3ccc(Cl)cc3)CC2)nc2ccccc2c1=O`: the GI50 is 5770 nM and the TGI turned out to be 81.3 µM.
The like results for `COc1cccc(COc2cc(-n3cnc4ccccc43)sc2C(N)=O)c1` were, in that order, above 25000 nM and above 25 µM.
The like results for `CCN(CC)c1ccc(/C=C/C2=[N+](C)c3ccccc3C2(C)C)c(C)c1` were, in that order, 37.7 nM and 12.2 µM.

The subject of the next assay is 786-0 renal. Put plainly: inhibition of tumour cell growth, NCI panel, 48 h.
For `O=C(Cl)C1=C(c2ccccc2)C1c1ccccc1` (configuration not stated), the TGI is above 100 µM.
`c1cnn2ncc(-c3ccnc(Nc4ccc5c(c4)OCCO5)n3)c2c1`: the GI50 is 76.4 nM and the TGI was above 25 µM.
As to `Cc1ccc(-n2nc(C(C)(C)C)cc2NC(=O)NCc2cc(F)ccc2Oc2ccc3c(cnn3CCO)c2)cc1`, the GI50 is > 10000 nM and 8580 nM; the TGI was above 100 µM.
Regarding `COc1ccc2c(NCCCCCCNc3c4ccccc4nc4cc(OC)ccc34)c3ccccc3nc2c1`, the TGI was determined as 1.3 µM.
Take `COc1cccc2c(=O)c3c(sc12)c(NCCCNCCO)nc1ccccc13`: the GI50 is 1750 nM and the TGI is 3.25 µM.
In turn, `O=C(O)c1ccccc1C(=O)c1ccc2c(c1)Cc1ccccc1-2` came in with a TGI above 100 µM.
On the same count and under the same terms, the result for `C=CC1=C(C)C2=NC1=CC1=NC(=CC3=C(C)C4=C(O)[C@H](C(=O)OC)C(=C5NC(=C2)[C@@H](C)[C@@H]5CCC(=O)O)C4=N3)C(CC)=C1C` reads above 28.2 µM.
In the case of `COc1ccc(Nc2nccc(N3CCN(c4c5ccc(Cl)cc5nc5ccc(OC)cc45)CC3)n2)cc1`, the GI50 is 5400 nM and the TGI is 47.2 µM.
The like results for `CC(=Nc1ccc(S(N)(=O)=O)cc1)c1c(O)[nH]c2ccccc12` were, in that order, above 25000 nM and above 25 µM.
For `CCn1c(-c2nonc2N)nc2ccncc21`, in that order: above 25000 nM and above 25 µM.
For `CC(C)[O-].CC(C)[O-].CN(CCN(C)Cc1cc(F)cc(F)c1[O-])Cc1cc(F)cc(F)c1[O-].[Ti+4]`, in that order: 1480 nM and 5.7 µM.
In the case of `Clc1ccc2c(c1)N(c1ncnc3ccc(-c4cnc5[nH]ncc5c4)cc13)CC2`, the GI50 is 689 nM and the TGI is above 100 µM.
The like results for `COc1ccc(-c2cnoc2-c2cc(OC)c3c(c2)OCCO3)cc1` were, in that order, 62.9 nM and above 56.5 µM.
Take `CC(C)Oc1ccc(C(=O)Cn2ccnc2)cc1-n1c(CN2CCN(C(=O)COc3ccc(Cl)cc3)CC2)nc2ccccc2c1=O`: the GI50 is 1300 nM and the TGI is 5.48 µM.
The like results for `COc1cccc(COc2cc(-n3cnc4ccccc43)sc2C(N)=O)c1` were, in that order, above 25000 nM and above 25 µM.
`CCN(CC)c1ccc(/C=C/C2=[N+](C)c3ccccc3C2(C)C)c(C)c1`: the GI50 is 94.1 nM and the TGI stood at 1.88 µM.

The next assay concerns BT-549 breast. Kind of assay: inhibition of tumour cell growth, NCI panel, 48 h.
Turning to `O=C(Cl)C1=C(c2ccccc2)C1c1ccccc1` (configuration not stated), the TGI was above 100 µM.
For the molecule `c1cnn2ncc(-c3ccnc(Nc4ccc5c(c4)OCCO5)n3)c2c1`, the GI50 was 0.0588 µM and the TGI stood at 0.2 µM.
In the case of `Cc1ccc(-n2nc(C(C)(C)C)cc2NC(=O)NCc2cc(F)ccc2Oc2ccc3c(cnn3CCO)c2)cc1`, the GI50 is > 10 µM and 4.68 µM; the TGI is above 96.1 µM.
In turn, `COc1ccc2c(NCCCCCCNc3c4ccccc4nc4cc(OC)ccc34)c3ccccc3nc2c1` registered a TGI of 3.18 µM.
Take `COc1cccc2c(=O)c3c(sc12)c(NCCCNCCO)nc1ccccc13`: the GI50 was 5.29 µM and the TGI turned out to be 18.6 µM.
Turning to `O=C(O)c1ccccc1C(=O)c1ccc2c(c1)Cc1ccccc1-2`, the TGI was above 100 µM.
Molecule `C=CC1=C(C)C2=NC1=CC1=NC(=CC3=C(C)C4=C(O)[C@H](C(=O)OC)C(=C5NC(=C2)[C@@H](C)[C@@H]5CCC(=O)O)C4=N3)C(CC)=C1C` returned a TGI above 20.2 µM.
As for `COc1ccc(Nc2nccc(N3CCN(c4c5ccc(Cl)cc5nc5ccc(OC)cc45)CC3)n2)cc1`, the GI50 was 14.4 µM and the TGI was above 100 µM.
For `CC(=Nc1ccc(S(N)(=O)=O)cc1)c1c(O)[nH]c2ccccc12`, in that order: above 25 µM and above 25 µM.
As to `CCn1c(-c2nonc2N)nc2ccncc21`, the GI50 is above 25 µM and the TGI was above 25 µM.
`CC(C)[O-].CC(C)[O-].CN(CCN(C)Cc1cc(F)cc(F)c1[O-])Cc1cc(F)cc(F)c1[O-].[Ti+4]`: the GI50 is 1.95 µM and the TGI came to 5.92 µM.
For `Clc1ccc2c(c1)N(c1ncnc3ccc(-c4cnc5[nH]ncc5c4)cc13)CC2`, in that order: 0.676 µM and above 100 µM.
With `COc1ccc(-c2cnoc2-c2cc(OC)c3c(c2)OCCO3)cc1`, the GI50 was 0.073 µM and the TGI was 27.8 µM.
On to `CC(C)Oc1ccc(C(=O)Cn2ccnc2)cc1-n1c(CN2CCN(C(=O)COc3ccc(Cl)cc3)CC2)nc2ccccc2c1=O`, for which the GI50 is 13.5 µM and the TGI was found to be 30.9 µM.
For `COc1cccc(COc2cc(-n3cnc4ccccc43)sc2C(N)=O)c1`, in that order: above 21 µM and above 25 µM.
The like results for `CCN(CC)c1ccc(/C=C/C2=[N+](C)c3ccccc3C2(C)C)c(C)c1` were, in that order, below 0.0309 µM and 1.24 µM.

A further assay deals with ACHN renal. Kind of assay: inhibition of tumour cell growth, NCI panel, 48 h.
`O=C(Cl)C1=C(c2ccccc2)C1c1ccccc1` (configuration not stated) yielded a TGI above 100 µM.
As to `c1cnn2ncc(-c3ccnc(Nc4ccc5c(c4)OCCO5)n3)c2c1`, the GI50 is 54.9 nM and the TGI was above 25 µM.
Take `Cc1ccc(-n2nc(C(C)(C)C)cc2NC(=O)NCc2cc(F)ccc2Oc2ccc3c(cnn3CCO)c2)cc1`: the GI50 was 4300 nM and 2790 nM; the TGI is above 56.2 µM.
The molecule `COc1ccc2c(NCCCCCCNc3c4ccccc4nc4cc(OC)ccc34)c3ccccc3nc2c1` returned a TGI of 1.01 µM.
Regarding `COc1cccc2c(=O)c3c(sc12)c(NCCCNCCO)nc1ccccc13`, the GI50 was 1350 nM and the TGI turned out to be 2.67 µM.
`O=C(O)c1ccccc1C(=O)c1ccc2c(c1)Cc1ccccc1-2` registered a TGI above 100 µM.
On to `C=CC1=C(C)C2=NC1=CC1=NC(=CC3=C(C)C4=C(O)[C@H](C(=O)OC)C(=C5NC(=C2)[C@@H](C)[C@@H]5CCC(=O)O)C4=N3)C(CC)=C1C`, for which the TGI came out at 7.21 µM.
As for `COc1ccc(Nc2nccc(N3CCN(c4c5ccc(Cl)cc5nc5ccc(OC)cc45)CC3)n2)cc1`, the GI50 was 6860 nM and the TGI was above 100 µM.
The like results for `CC(=Nc1ccc(S(N)(=O)=O)cc1)c1c(O)[nH]c2ccccc12` were, in that order, above 25000 nM and above 25 µM.
For `CCn1c(-c2nonc2N)nc2ccncc21`, in that order: above 25000 nM and above 25 µM.
On to `CC(C)[O-].CC(C)[O-].CN(CCN(C)Cc1cc(F)cc(F)c1[O-])Cc1cc(F)cc(F)c1[O-].[Ti+4]`, for which the GI50 is 1000 nM and the TGI turned out to be 8.34 µM.
As to `Clc1ccc2c(c1)N(c1ncnc3ccc(-c4cnc5[nH]ncc5c4)cc13)CC2`, the GI50 is 317 nM and the TGI is above 100 µM.
The like results for `COc1ccc(-c2cnoc2-c2cc(OC)c3c(c2)OCCO3)cc1` were, in that order, 108 nM and above 58.9 µM.
For `CC(C)Oc1ccc(C(=O)Cn2ccnc2)cc1-n1c(CN2CCN(C(=O)COc3ccc(Cl)cc3)CC2)nc2ccccc2c1=O`, in that order: 1610 nM and 3.14 µM.
In the case of `COc1cccc(COc2cc(-n3cnc4ccccc43)sc2C(N)=O)c1`, the GI50 was above 25000 nM and the TGI is above 25 µM.
The like results for `CCN(CC)c1ccc(/C=C/C2=[N+](C)c3ccccc3C2(C)C)c(C)c1` were, in that order, 77.3 nM and 3.97 µM.

The subject of the next assay is HOP-62 NSCLC. Kind of assay: inhibition of tumour cell growth, NCI panel, 48 h.
`O=C(Cl)C1=C(c2ccccc2)C1c1ccccc1` (configuration not stated) yielded a TGI above 100 µM.
Regarding `c1cnn2ncc(-c3ccnc(Nc4ccc5c(c4)OCCO5)n3)c2c1`, the GI50 was 95.8 nM and the TGI was above 25 µM.
As for `Cc1ccc(-n2nc(C(C)(C)C)cc2NC(=O)NCc2cc(F)ccc2Oc2ccc3c(cnn3CCO)c2)cc1`, the GI50 is > 10000 nM and 8950 nM; the TGI is above 81.5 µM.
Molecule `COc1ccc2c(NCCCCCCNc3c4ccccc4nc4cc(OC)ccc34)c3ccccc3nc2c1` displayed a TGI of 0.946 µM.
`COc1cccc2c(=O)c3c(sc12)c(NCCCNCCO)nc1ccccc13`: the GI50 is 1200 nM and the TGI is 2.81 µM.
`O=C(O)c1ccccc1C(=O)c1ccc2c(c1)Cc1ccccc1-2` had a TGI above 100 µM.
For the molecule `C=CC1=C(C)C2=NC1=CC1=NC(=CC3=C(C)C4=C(O)[C@H](C(=O)OC)C(=C5NC(=C2)[C@@H](C)[C@@H]5CCC(=O)O)C4=N3)C(CC)=C1C`, the TGI was above 33.5 µM.
In the case of `COc1ccc(Nc2nccc(N3CCN(c4c5ccc(Cl)cc5nc5ccc(OC)cc45)CC3)n2)cc1`, the GI50 is 38700 nM and the TGI is above 100 µM.
The like results for `CC(=Nc1ccc(S(N)(=O)=O)cc1)c1c(O)[nH]c2ccccc12` were, in that order, above 14500 nM and above 25 µM.
The like results for `CCn1c(-c2nonc2N)nc2ccncc21` were, in that order, above 25000 nM and above 25 µM.
The like results for `CC(C)[O-].CC(C)[O-].CN(CCN(C)Cc1cc(F)cc(F)c1[O-])Cc1cc(F)cc(F)c1[O-].[Ti+4]` were, in that order, 634 nM and 3.68 µM.
Take `Clc1ccc2c(c1)N(c1ncnc3ccc(-c4cnc5[nH]ncc5c4)cc13)CC2`: the GI50 was 463 nM and the TGI is above 100 µM.
For `COc1ccc(-c2cnoc2-c2cc(OC)c3c(c2)OCCO3)cc1`, in that order: 31.9 nM and 56.6 µM.
For `CC(C)Oc1ccc(C(=O)Cn2ccnc2)cc1-n1c(CN2CCN(C(=O)COc3ccc(Cl)cc3)CC2)nc2ccccc2c1=O`, in that order: 15000 nM and 44.9 µM.
The like results for `COc1cccc(COc2cc(-n3cnc4ccccc43)sc2C(N)=O)c1` were, in that order, 5340 nM and above 25 µM.
Take `CCN(CC)c1ccc(/C=C/C2=[N+](C)c3ccccc3C2(C)C)c(C)c1`: the GI50 is 98.3 nM and the TGI is 1.74 µM.
